Results as given in patent US6677350B1, “Beta-fluoroethyl thiourea compounds and use” (priority 1999, dated 2004).
Like-named read-outs stand apart in the source and are kept apart here.

System: M. tuberculosis H37Rv (ATCC 27294)
Assay: In vitro anti-tuberculosis screening, BACTEC 460 radiometric system, percent inhibition of growth
Type: cell-based, Mycobacterium tuberculosis
Details: Mtb H37Rv; for inhibition at 12.5 µg/mL: Mycobacterium tuberculosis
[1] = drug concentration 12.5 μg/mL, read-out: inhibition of the growth of Mtb

O=C(/C=C/c1ccccc1)c1cc(Cl)ccc1O [Compound 26]
Activity % inhibition at 12.5 μg/mL (chalcones) (12.5 μg/mL, BACTEC 12B medium): 67%
inhibition of the growth of Mtb (drug concentration 12.5 μg/mL): 67%

Nc1ccc(O)c(C(=O)/C=C/c2ccccc2)c1 [Compound 12]
Activity % inhibition at 12.5 μg/mL (chalcones) (12.5 μg/mL, BACTEC 12B medium): 6%
inhibition of the growth of Mtb (drug concentration 12.5 μg/mL): 6%

O=c1cc(-c2ccccc2)oc2ccc(Br)cc12 [Compound 123]
anti-TB activity in words (12.5 μg/mL): weakly active or inactive
Activity % Inhibition at 12.5 μg/mL (flavones) (12.5 μg/mL, BACTEC 12B medium): 0%

O=C(/C=C/c1ccc(Cl)cc1)c1ccccc1O [Compound 27]
Activity % inhibition at 12.5 μg/mL (chalcones) (12.5 μg/mL, BACTEC 12B medium): 67%
inhibition of the growth of Mtb (drug concentration 12.5 μg/mL): 67%

O=C1CC(c2ccccc2)Oc2ccc(Br)cc21 (stereo not shown) [Compound 142]
Activity % Inhibition at 12.5 μg/mL (flavanones) (12.5 μg/mL, BACTEC 12B medium): 8%

COc1ccccc1C=CC(=O)c1ccccc1O [Compound 8]
Activity % inhibition at 12.5 μg/mL (chalcones) (12.5 μg/mL, BACTEC 12B medium): 39%

COc1ccc(-c2oc3c(I)cccc3c(=O)c2O)cc1 [Compound 113]
Activity % Inhibition at 12.5 μg/mL (flavones) (12.5 μg/mL, BACTEC 12B medium): 6%

O=C(/C=C/c1ccccc1I)c1ccccc1O [Compound 44, 2′-hydroxy-2-iodochalcone]
inhibition at 12.5 µg/mL (12.5 μg/mL, BACTEC 12B medium, read-out: Activity % inhibition at 12.5 μg/mL (chalcones)): 41%
inhibition at 12.5 µg/mL [1]: 41%

COc1ccc(C=CC(=O)c2ccc(F)cc2O)cc1 [Compound 22]
Activity % inhibition at 12.5 μg/mL (chalcones) (12.5 μg/mL, BACTEC 12B medium): 63%

O=C(/C=C/c1cccc(I)c1)c1cccc(Br)c1O [Compound 51, 3′-bromo-2′-hydroxy-3-iodochalcone]
inhibition at 12.5 µg/mL [1]: 0%

COc1ccc(/C=C/C(=O)c2ccccn2)cc1 [Compound 76]
Activity % inhibition at 12.5 μg/mL (chalcone-like compounds) (12.5 μg/mL, BACTEC 12B medium): 0%

O=C(/C=C/c1ccccc1)c1cccc(Br)c1O [Compound 32]
Activity % inhibition at 12.5 μg/mL (chalcones) (12.5 μg/mL, BACTEC 12B medium): 79%
inhibition of the growth of Mtb (drug concentration 12.5 μg/mL): 79%

O=C1CC(c2ccccc2)Oc2cc(Br)ccc21 (stereo not shown) [Compound 136, 7-bromo-flavanone]
inhibition at 12.5 µg/mL (12.5 μg/mL, BACTEC 12B medium, read-out: Activity % Inhibition at 12.5 μg/mL (flavanones)): 53%
inhibition at 12.5 µg/mL [1]: 53%

COc1ccc2c(c1)OC(c1ccccc1)C(C1C(=O)c3ccc(OC)cc3OC1c1ccccc1)C2=O (stereo not shown) [Compound 160, 3-3″-Bi-(7-methoxyflavanone)]
Activity % Inhibition at 12.5 μg/mL (biflavonoids) (12.5 μg/mL, BACTEC 12B medium): 0%

O=C1CC(c2ccc(O)c(O)c2)Oc2c1c(O)cc(OC1OC(CO)C(O)C(O)C1O)c2C1C(=O)c2c(O)cc(O)cc2OC1c1ccc(O)cc1 (stereo not shown) [Compound 179, Xanthochymuside]
Activity % Inhibition at 12.5 μg/mL (biflavonoids) (12.5 μg/mL, BACTEC 12B medium): 0%

COc1ccc(-c2cc(=O)c3cc(C(=O)O)ccc3o2)cc1 [Compound 115]
Activity % Inhibition at 12.5 μg/mL (flavones) (12.5 μg/mL, BACTEC 12B medium): 2%

COc1ccc(C(=O)/C=C/c2ccncc2)cc1 [Compound 70]
Activity % inhibition at 12.5 μg/mL (chalcone-like compounds) (12.5 μg/mL, BACTEC 12B medium): 0%

O=c1c(Br)c(-c2ccccc2)oc2ccccc12 [Compound 108]
Activity % Inhibition at 12.5 μg/mL (flavones) (12.5 μg/mL, BACTEC 12B medium): 13%

Suceedaneaflavanone [Compound 169]
Activity % Inhibition at 12.5 μg/mL (biflavonoids) (12.5 μg/mL, BACTEC 12B medium): 0%

COc1ccc(-c2oc3cc(OC)cc(OC)c3c(=O)c2Br)cc1 [Compound 131]
Activity % Inhibition at 12.5 μg/mL (flavones) (12.5 μg/mL, BACTEC 12B medium): 0%

COc1ccc(/C=C/C(=O)c2cc(Br)ccc2O)cc1 [Compound 37]
Activity % inhibition at 12.5 μg/mL (chalcones) (12.5 μg/mL, BACTEC 12B medium): 23%
inhibition of the growth of Mtb (drug concentration 12.5 μg/mL): 23%

Nc1ncccc1/C=C/C(=O)c1cc2ccccc2cc1O [Compound 74]
Activity % inhibition at 12.5 μg/mL (chalcone-like compounds) (12.5 μg/mL, BACTEC 12B medium): 0%

COc1ccc(-c2cc(=O)c3ccc(OC)cc3o2)cc1 [Compound 119]
Activity % Inhibition at 12.5 μg/mL (flavones) (12.5 μg/mL, BACTEC 12B medium): 0%

COc1ccc(-c2cc(=O)c3c(OC)cc(OC)cc3o2)cc1 [Compound 109]
Activity % Inhibition at 12.5 μg/mL (flavones) (12.5 μg/mL, BACTEC 12B medium): 12%

O=c1cc(-c2ccc(Cl)c([N+](=O)[O-])c2)oc2ccccc12 [Compound 95]
Activity % Inhibition at 12.5 μg/mL (flavones) (12.5 μg/mL, BACTEC 12B medium): 28%

O=C1CC(c2ccc(O)cc2)Oc2cc(O)c(-c3c(O)cc(O)c4c3OC(c3ccc(O)cc3)CC4=O)c(O)c21 (stereo not shown) [Compound 168, Rhusflavanone]
Activity % Inhibition at 12.5 μg/mL (biflavonoids) (12.5 μg/mL, BACTEC 12B medium): 0%

O=C1CC(c2ccccc2)Oc2ccc(I)cc21 (stereo not shown) [Compound 139]
Activity % Inhibition at 12.5 μg/mL (flavanones) (12.5 μg/mL, BACTEC 12B medium): 27%

COc1ccc(/C=C/C(=O)c2cccc(F)c2O)cc1 [Compound 23]
Activity % inhibition at 12.5 μg/mL (chalcones) (12.5 μg/mL, BACTEC 12B medium): 45%

O=c1cc(-c2ccccc2)oc2ccc(I)cc12 [Compound 124]
anti-TB activity in words (12.5 μg/mL): weakly active or inactive
Activity % Inhibition at 12.5 μg/mL (flavones) (12.5 μg/mL, BACTEC 12B medium): 0%

O=c1cc(-c2ccccc2)oc2cc(I)ccc12 [Compound 102]
anti-TB activity in words (12.5 μg/mL): weakly active or inactive
Activity % Inhibition at 12.5 μg/mL (flavones) (12.5 μg/mL, BACTEC 12B medium): 20%

O=C1c2ccccc2OC(c2ccccc2)C1(Br)Br (stereo not shown) [Compound 148]
Activity % Inhibition at 12.5 μg/mL (flavanones) (12.5 μg/mL, BACTEC 12B medium): 0%

6-2′′′-Biapigenin [Compound 158]
Activity % Inhibition at 12.5 μg/mL (biflavonoids) (12.5 μg/mL, BACTEC 12B medium): 1%

COc1ccc(-c2cc(=O)c3c(OC)cc(OC)c(I)c3o2)cc1 [Compound 125]
Activity % Inhibition at 12.5 μg/mL (flavones) (12.5 μg/mL, BACTEC 12B medium): 0%

COc1ccc(/C=C/C(=O)c2cc(C(=O)O)ccc2O)cc1 [Compound 16]
Activity % inhibition at 12.5 μg/mL (chalcones) (12.5 μg/mL, BACTEC 12B medium): 0%

O=C(c1ccccc1)c1ccc2c(=O)c(C(=O)c3ccccc3)c(-c3ccccc3)oc2c1 [Compound 110]
Activity % Inhibition at 12.5 μg/mL (flavones) (12.5 μg/mL, BACTEC 12B medium): 12%

COc1ccc(-c2oc3cc(F)ccc3c(=O)c2OC(C)=O)cc1 [Compound 86]
Activity % Inhibition at 12.5 μg/mL (flavones) (12.5 μg/mL, BACTEC 12B medium): 50%

O=C1C[C@@H](c2ccc(O)c(O)c2)Oc2c1c(O)cc(O)c2[C@H]1C(=O)c2c(O)cc(O)cc2O[C@@H]1c1ccc(O)cc1 [Compound 172, GB-2a]
Activity % Inhibition at 12.5 μg/mL (biflavonoids) (12.5 μg/mL, BACTEC 12B medium): 0%

O=c1cc(-c2ccccc2)oc2cc(Br)ccc12 [Compound 106]
anti-TB activity in words (12.5 μg/mL): weakly active or inactive
Activity % Inhibition at 12.5 μg/mL (flavones) (12.5 μg/mL, BACTEC 12B medium): 15%

COc1ccc(-c2oc3ccccc3c(=O)c2Br)cc1 [Compound 96]
Activity % Inhibition at 12.5 μg/mL (flavones) (12.5 μg/mL, BACTEC 12B medium): 28%

O=c1cc(-c2ccc(I)cc2)oc2ccccc12 [Compound 84]
anti-TB activity in words (12.5 μg/mL): weakly active or inactive
Activity % Inhibition at 12.5 μg/mL (flavones) (12.5 μg/mL, BACTEC 12B medium): 51%
inhibition of the growth of Mtb (drug concentration 12.5 μg/mL): 51%

O=C1CC(c2cccc(Br)c2)Oc2ccccc21 (stereo not shown) [Compound 134]
Activity % Inhibition at 12.5 μg/mL (flavanones) (12.5 μg/mL, BACTEC 12B medium): 73%
inhibition of the growth of Mtb (drug concentration 12.5 μg/mL): 73%

COc1cc(O)c(C(=O)/C=C/c2cc(OC)c(OC)c(OC)c2)c(O)c1 [Compound 15]
Activity % inhibition at 12.5 μg/mL (chalcones) (12.5 μg/mL, BACTEC 12B medium): 0%

Nc1ccc(C(=O)/C=C/c2ccccc2)cc1 [Compound 13]
Activity % inhibition at 12.5 μg/mL (chalcones) (12.5 μg/mL, BACTEC 12B medium): 5%

O=c1c(O)c(-c2cccc(Br)c2)oc2ccccc12 [Compound 80]
Activity % Inhibition at 12.5 μg/mL (flavones) (12.5 μg/mL, BACTEC 12B medium): 60%

O=C(C=Cc1ccccc1)c1ccc(Cl)cc1O [Compound 25]
Activity % inhibition at 12.5 μg/mL (chalcones) (12.5 μg/mL, BACTEC 12B medium): 89%
inhibition of the growth of Mtb (drug concentration 12.5 μg/mL): 89%

O=C(O)c1ccc2c(c1)C(=O)CC(c1ccccc1)O2 (stereo not shown) [Compound 146]
Activity % Inhibition at 12.5 μg/mL (flavanones) (12.5 μg/mL, BACTEC 12B medium): 0%

COc1ccc(/C=C/C(=O)c2ccc([N+](=O)[O-])cc2)cc1 [Compound 4]
Activity % inhibition at 12.5 μg/mL (chalcones) (12.5 μg/mL, BACTEC 12B medium): 62%

COc1ccc(-c2oc3cc(F)ccc3c(=O)c2O)cc1 [Compound 85]
anti-TB activity in words (12.5 μg/mL): did not change the activity
Activity % Inhibition at 12.5 μg/mL (flavones) (12.5 μg/mL, BACTEC 12B medium): 50%

O=c1cc(-c2cccc(-c3ccc4c(=O)cc(-c5ccccc5)oc4c3)c2)oc2ccccc12 [Compound 162, 7-3′′′-Biflavone]
Activity % Inhibition at 12.5 μg/mL (biflavonoids) (12.5 μg/mL, BACTEC 12B medium): 0%

O=c1cc(-c2cccc(Cl)c2)oc2ccccc12 [Compound 121]
anti-TB activity in words (12.5 μg/mL): weakly active or inactive
Activity % Inhibition at 12.5 μg/mL (flavones) (12.5 μg/mL, BACTEC 12B medium): 0%
inhibition of the growth of Mtb (drug concentration 12.5 μg/mL): 0%

3′′′-Nitro-C3-O-C4′′′′--Biflavone [Compound 154]
Activity % Inhibition at 12.5 μg/mL (biflavonoids) (12.5 μg/mL, BACTEC 12B medium): 61%

O=C1CC(c2ccccc2)Oc2cc(F)ccc21 (stereo not shown) [Compound 143]
Activity % Inhibition at 12.5 μg/mL (flavanones) (12.5 μg/mL, BACTEC 12B medium): 7%
